This is an account of results in US20050197350A1, “Novel quinoline, tetrahydroquinazoline, and pyrimidine derivatives and methods of treatment related to the use thereof” (TAISHO PHARMACEUTICAL CO., LTD., priority 2003, published 2005).

In this experiment the test system is MCH receptors. Kind of experiment: MCH receptor activity class (method not given).
Setting [1] is: class by percent of control at 10^-7 M or IC50.
[2] abbreviates: activity class per percent of control at 10^-7 M or IC50.

For the compound `CN(C)c1nc(N[C@H]2CC[C@@H](NC(=O)C3CCCC[C@H]3C(=O)c3ccccc3)CC2)nc2c1CCCC2` (some centres unmarked) [compound 969], under setting [1], the class is listed as 3 (Class 3 The value of percent of control at 10^−7 M was more than 60% or the value of IC50 was more than 200 nM.).

Regarding `CN(C)c1nc(N[C@H]2CC[C@@H](NC(=O)c3ccc(Br)o3)CC2)nc2c1CCCC2` [compound 970, 5-bromo-N-(cis-4-{[4-(dimethylamino)-5,6,7,8-tetrahydroquinazolin-2-yl]amino}cyclohexyl)-2-furamide], the class under setting [1] is 1 (Class 1: The value of percent of control at 10^−7 M was less than 40% or the value of IC50 was less than 50 nM.).

For the compound `CN(C)c1nc(N[C@H]2CC[C@@H](NC(=O)CCC3CCCCC3)CC2)nc2c1CCCC2` [compound 971], the class under setting [1] is 3 (Class 3 The value of percent of control at 10^−7 M was more than 60% or the value of IC50 was more than 200 nM.).

Regarding `Cc1ccnc(SCC(=O)N[C@H]2CC[C@@H](Nc3nc4c(c(N(C)C)n3)CCCC4)CC2)n1` [compound 972], under setting [1], the class is 2 (Class 2: The value of percent of control at 10^−7 M was from 40% to 60% or the value of IC′50 was from 50 nM to 200 nM.).

Take `CN(C)c1nc(N[C@H]2CC[C@@H](NC(=O)c3ccc(-c4ccc(Cl)cc4)o3)CC2)nc2c1CCCC2` [compound 973]: the class under setting [1] is 1 (Class 1: The value of percent of control at 10^−7 M was less than 40% or the value of IC50 was less than 50 nM.).

`CN(C)c1nc(N[C@H]2CC[C@@H](NC(=O)CCc3ccc(Cl)c(Cl)c3)CC2)nc2c1CCCC2` [compound 974]: the class under setting [1] is 3 (Class 3 The value of percent of control at 10^−7 M was more than 60% or the value of IC50 was more than 200 nM.).

With `CN(C)c1nc(N[C@H]2CC[C@@H](NC(=O)Cc3ccc(Cl)c(Cl)c3)CC2)nc2c1CCCC2` [compound 975], under setting [1], the class is reported as 1 (Class 1: The value of percent of control at 10^−7 M was less than 40% or the value of IC50 was less than 50 nM.).

Take `COc1cc(CC(=O)N[C@H]2CC[C@@H](Nc3nc4c(c(N(C)C)n3)CCCC4)CC2)cc(OC)c1O` [compound 976]: under setting [1], the class is 1 (Class 1: The value of percent of control at 10^−7 M was less than 40% or the value of IC50 was less than 50 nM.).

In the case of `CN(C)c1nc(N[C@H]2CC[C@@H](NC(=O)c3cc(Br)c(Br)s3)CC2)nc2c1CCCC2` [compound 977, 4,5-dibromo-N-(cis-4-{[4-(dimethylamino)-5,6,7,8-tetrahydroquinazolin-2-yl]amino}cyclohexyl)thiophene-2-carboxamide], the class under setting [1] was 2 (Class 2: The value of percent of control at 10^−7 M was from 40% to 60% or the value of IC′50 was from 50 nM to 200 nM.).

Turning to `COc1cc(CC(=O)N[C@H]2CC[C@@H](Nc3nc4c(c(N(C)C)n3)CCCC4)CC2)cc(OC)c1` [compound 978], the class under setting [2] is listed as 3 (Class 3 The value of percent of control at 10^−7 M was more than 60% or the value of IC50 was more than 200 nM.).

As to `CN(C)c1nc(N[C@H]2CC[C@@H](NC(=O)Cc3cc(C(C)(C)C)c(O)c(C(C)(C)C)c3)CC2)nc2c1CCCC2` [compound 979], the class under setting [2] is 3 (Class 3 The value of percent of control at 10^−7 M was more than 60% or the value of IC50 was more than 200 nM.).

On to `CN(C)c1cccc(C(=O)N[C@H]2CC[C@@H](Nc3nc4c(c(N(C)C)n3)CCCC4)CC2)c1` [compound 981, 3-(dimethylamino)-N-(cis-4-{[4-(dimethylamino)-5,6,7,8-tetrahydroquinazolin-2-yl]amino}cyclohexyl)benzamide], for which the class under setting [2] was 2 (Class 2: The value of percent of control at 10^−7 M was from 40% to 60% or the value of IC′50 was from 50 nM to 200 nM.).

With `CN(C)c1nc(N[C@H]2CC[C@@H](NC(=O)c3cc(Br)c(Br)o3)CC2)nc2c1CCCC2` [compound 982], under setting [2], the class is reported as 1 (Class 1: The value of percent of control at 10^−7 M was less than 40% or the value of IC50 was less than 50 nM.).

Turning to `CN(C)c1nc(N[C@H]2CC[C@@H](NC(=O)CCC(=O)c3ccc(F)cc3)CC2)nc2c1CCCC2` [compound 983], under setting [2], the class is recorded as 2 (Class 2: The value of percent of control at 10^−7 M was from 40% to 60% or the value of IC′50 was from 50 nM to 200 nM.).
